# Data taken from patent publication US9012492B2, “Apocynin-lipoic acid conjugates and uses thereof” (priority 2011, dated 2015).
# Key:
# [1] = tested on: Sprague-Dawley rats; experiment: Infarct volume after transient middle cerebral artery occlusion, ischemia/reperfusion (I/R); format: in vivo, rat
# Description: Sprague-Dawley rats were used to study the effects of (Ia) on reperfusion injury following stroke in a rodent model. The rats were anesthetized, and injected with (la) (0.01-0.1 mg/kg). After 30 minutes, occlusion of the middle cerebral artery (MCA) was performed.
# The detailed methodology for permanent middle cerebral artery occlusion (MCAO) and transient (I/R) occlusion of the middle cerebral artery has been published previously.^46 Briefly, animals were placed in a David Kopf stereotaxic frame (Tujunga, Calif.), and the right middle cerebral artery (MCA) approached through a rostral-caudal incision of the skin and frontalis muscle at the approximate level of bregma. Blood flow through the MCA was impeded by the placement of surgical suture behind the MCA at three designated positions along the exposed vessel. The sutures were positioned so that the middle of each suture applied pressure to the underside of the MCA and impeded blood flow as confirmed using laser Doppler flowmetry (OxyFlo, Oxford-Optronix, Oxford, UK; Ref. 46). This three-point placement of surgical sutures produced a highly reproducible and consistent focal ischemic lesion (permanent ischemia) restricted to the prefrontal cerebral cortex. For transient I/R, the sutures were left in place for 30 min and then removed (reperfusion) to allow blood flow to return to the area for an additional 5.5 h (209 rats received I/R). In 12 rats, sutures were left in place for 6 h as a model of permanent ischemia.
# To examine the effect of the compound of Formula (Ia) on I/R-induced cell death, injections of the compound of Formula (Ia) (0.01, 0.05, 0.1, or 0.5 mg/kg; 1 ml/kg iv; n=4 per group) or vehicle (25% EtOH; 1 ml/kg iv; n=6) were made 30 min prior to the onset of MCAO. The sutures were left in place for 30 min and removed. Reperfusion was allowed for 5.5 h, and the experiment was terminated.
# To determine whether the compound of Formula (Ia) was neuroprotective when administered during the 30-min period of occlusion, injections of the compound of Formula (Ia) at a dose that produced optimal neuroprotection based on the dose-response-curve described above (0.1 mg/kg; 1 ml/kg iv; n=4) or vehicle (25% EtOH; 1 mi/kg iv; n=4) were made 15 min following the onset of MCAO. After a further 15 min, the sutures were removed to allow for an additional 5.5 h of reperfusion.
# To examine the effect of the compound of Formula (Ia) on reperfusion injury alone, injections of the optimal dose of the compound of Formula (Ia) (0.1 mg/kg; 1 ml/kg iv; n=4 per group) or vehicle (1 ml/kg iv; n=4 or 5 per group) were made following 30 min of MCAO, immediately prior to the removal of the sutures, or 30, 60, 90, 120, or 180 min following suture removal (start of reperfusion). In all cases, the experiments were terminated following 5.5 h of reperfusion.
# To determine whether the compound of Formula (Ia) required bioactivation and/or metabolism to an active intermediate to produce neuroprotection, the effect of direct intracortical injections of the compound of Formula (Ia) on infarct volume were investigated in the present model of transient occlusion (I/R). The compound of Formula (Ia) (0.01, 0.1, 0.5, or 1.0 μM in 200 n1; n=4 per group) or the same volume of vehicle (0.0125% EtOH; 200 n1; n=6) was injected into the ipsilateral hemisphere (bregma—0.3 mm, lateral—5.5 mm and depth of—3.0 mm from the dorsal surface of the brain)^47 10 min prior to suture placement followed by 30 min of MCAO and 5.5 h of reperfusion.
# To examine the effect of the compound of Formula (Ia) on the change in infarct volume over the 5.5 h of reperfusion, injections of the optimal dose of the compound of Formula (Ia) (0.1 mg/kg; 1 ml/kg iv; n=4 per group) or vehicle (25% EtOH; 1 ml/kg iv; n=4) were made 30 min prior to the onset of MCAO. The sutures were left in place for 30 min. […]
# [2] = tested on: dog liver microsomes (DLM); experiment: Metabolic stability using dog liver microsomes; format: in vitro ADME
# Source text: Table 9 summarizes the experimental conditions used in the studies of the metabolic stability of the compound of Formula (Ia) using dog liver microsomes and human liver microsomes.
structure (smiles),measurement,setting,value
COc1cc(C(C)=O)ccc1OC(=O)CCCCC1CCSS1 (stereo not drawn) [compound of Formula (Ia)],infarct volume after 5.5 h reperfusion vs vehicle,[1]; 0.1 mg/kg iv 15 min into 30-min MCAO (15 min prior to reperfusion),significant neuroprotection
same,infarct volume after 5.5 h reperfusion vs vehicle,[1]; 0.1 mg/kg iv 30 min following the start of reperfusion,significant decreases in infarct volume
same,infarct volume following I/R vs vehicle,"[1]; 0.1 mg/kg iv 30 min prior to MCAO, 30 min MCAO, 5.5 h reperfusion",significant decrease in infarct volume
same,mean infarct volume smaller than the vehicle group,"[1]; 0.1 mg/kg iv 30 min prior to MCAO, end of 5.5 h of reperfusion",~53%
same,"mean infarct volume vs vehicle, time course","[1]; 0.1 mg/kg iv 30 min prior to MCAO, measured at 4 h",significantly smaller
same,"mean infarct volume vs vehicle, time course","[1]; 0.1 mg/kg iv 30 min prior to MCAO, measured at 6 h",significantly smaller
same,infarct volume after 5.5 h reperfusion vs vehicle,[1]; 0.1 mg/kg iv 60 min following the start of reperfusion,significant decreases in infarct volume
same,infarct volume after 5.5 h reperfusion vs vehicle,[1]; 0.1 mg/kg iv 90 min following the start of reperfusion,significant decreases in infarct volume
same,infarct volume after 5.5 h reperfusion vs vehicle,[1]; 0.1 mg/kg iv 120 min following suture removal,did not result in a significant difference in infarct volume
same,infarct volume after 5.5 h reperfusion vs vehicle,[1]; 0.1 mg/kg iv 180 min following suture removal,did not result in a significant difference in infarct volume
same,infarct volume after 5.5 h reperfusion vs vehicle,[1]; 0.1 mg/kg iv at time 0 (start of reperfusion),significant decreases in infarct volume
same,infarct volume following I/R vs vehicle,"[1]; 0.5 mg/kg iv 30 min prior to MCAO, 30 min MCAO, 5.5 h reperfusion",significant decrease in infarct volume
same,neuroprotection (infarct volume) following I/R,"[1]; 0.01, 0.05, 0.1, 0.5 mg/kg iv 30 min prior to MCAO, 30 min MCAO, 5.5 h reperfusion",dose-dependent neuroprotection
same,stroke infarct volume,"[1]; Example 3, 0.01-0.1 mg/kg injected 30 minutes before MCA occlusion, vs ethanol vehicle",dose-dependent reduction in stroke infarct volume
same,dose required to produce significant neuroprotection,"[1]; I/R model, iv",0.1 mg/kg
same,infarct volume following I/R vs vehicle,[1]; direct intracortical preinjection 1.0 μM (200 nl) 10 min pre-MCAO,significant decrease in infarct volume
same,"latest administration time giving significant neuroprotection, following the start of reperfusion",[1]; optimal dose (0.1 mg/kg iv),up to 90 min
same,% Metabolism in 30 minutes,[2]; DLM control (without NADPH),0%
same,CLintr (mL/min/g liver),[2]; DLM control (without NADPH),>67 mL/min/g liver
same,% Metabolism in 30 minutes,[2]; DLM reaction (with NADPH),0%
same,CLintr (mL/min/g liver),[2]; DLM reaction (with NADPH),>67 mL/min/g liver
